Measurements taken from patent publication US20220144915A1, “STABILIZATION OF PRANDIAL OR BASAL INSULIN ANALOGUES BY AN INTERNAL DISELENIDE BRIDGE” (THE TRUSTEES OF INDIANA UNIVERSITY, priority 2019, published 2022).

What was measured:
[1] = side-chain -SH versus -SeH; cited from earlier work
MCF-7 = test: Mitogenicity: cyclin D1 / cyclin G2 mRNA by q-RT-rtPCR in MCF-7 cells; type: cell-based, human
Source text: Increased expression of the gene encoding cyclin D1 and decreased expression of the gene encoding cyclin G2 are characteristic of cellular proliferation in response to signaling by mitogenic insulin analogues or IGFs.
An assay for relative mitogenicity among insulin analogues is provided by transcriptional signaling leading to reciprocal regulation of the genes encoding cyclin D1 and cyclin G2 (Glidden, M. D., et al. (2018) J. Biol. Chem. 293: 47-68).

| Molecule | pKa [1] | mitogenic signature (cyclin D1 activation, cyclin G2 repression) (MCF-7) |
| --- | --- | --- |
| N[C@@H](CS)C(=O)O [Cys, cysteine] | approximately 8.3 |  |
| IGF-1: mitogenic growth factor, positive control |  | stimulates cyclin D1 transcription and inhibits cyclin G2 transciption to a more marked extent |
| N[C@@H](C[SeH])C(=O)O [Sec, selenocysteine] | approximately 5.2 |  |
